Data on eleven compounds can be found in US6599938B1, “Compounds having MIF antagonist activity” (The Picower Institute of Medical Research, priority 1999, dated 2003).

Several values for one entry are separate records, joined by “and”; a condition that tells them apart may be missing. Equal entries are not always repeated. Entries after “also recorded” stand apart in the source; their conditions may differ. Where two headings read alike, the source gives them in different places.

Assay [1] concerns the target T1, MIF (Homo sapiens, UniProt P14174).
T1 sequence (P14174 2-115 limits assumed): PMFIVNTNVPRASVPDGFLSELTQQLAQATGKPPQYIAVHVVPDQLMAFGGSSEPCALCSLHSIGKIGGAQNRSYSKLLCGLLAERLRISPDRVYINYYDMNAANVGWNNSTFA
The experiment in a line: MIF dopachrome tautomerase assay. In kind it is biochemical. Particulars: for IC50: MIF tautomerase activity, L-dopachrome methyl ester substrate; for MIF antagonist activity: D amino acid compounds compared with compounds 8-10.

In assay [2] the test system is quiescent NIH/3T3 fibroblasts. The assay is described as follows: Inhibition of MIF-dependent serum-induced proliferation of quiescent NIH/3T3 fibroblasts. In kind it is cell-based. The note with it: for MIF inhibitory activity (inhibition of MIF induced proliferation in quiescent NIH/3T3 cell cultures): NIH/3T3 cell proliferation assay.
Assay [3] concerns primary murine embryonic fibroblasts. The experiment in a line: Neutralization of rMIF rescue from serum-withdrawal apoptosis. Format: cell-based. The note with it: serum-free + rMIF 50 ng/ml; for neutralizing MIF-mediated protection from apoptosis (persistence of apoptosis despite rMIF): FIG. 2, test compound 1 or 10 μM, compared with anti-MIF mAb. From the text:
FIG. 2 compares the activity of MIF antagonist agents of the present invention (and more particularly compounds according to Formula I) to neutralize the MIF-mediated protection from apoptosis induced in cultured murine embryonic fibroblasts, which apoptotic response (cell death) is initiated by withdrawal of serum. In this assay, withdrawal of serum initiates an apoptotic response, but the cells can be rescued by addition of recombinant MIF (rMIF) to the culture medium. […] This antagonistic effect on MIF bioactivity in vitro is predictive of clinical utility of the active MIF antagonist agent.
In the illustrative experiments, cultured embryonic fibroblasts are induced to enter apoptosis (cell death) as a result of serum withdrawal. These cultures can be “rescued” by treatment with MIF. Thus, test compounds are conveniently assayed for MIF antagonist activity by reference to the activity of the compounds to neutralize the effect of added MIF in the apoptosis assay; that is, by the persistence of apoptosis (cell death) in serum-free culture conditions despite the addition of MIF. In this regard, anti-MIF antibodies are known to antagonize MIF and serve as a convenient positive control.
Briefly, primary murine embryonic fibroblasts are distributed into 6-well cell culture plates at 2×10^5 cells/well. Cells are subsequently cultured overnight under standard conditions in 10% serum-containing medium (+serum) or in serum-free medium (+serum-free) in the absence or presence of recombinant human MIF (rMIF) at 50 ng/ml. […] Cell lysates are analyzed for apoptosis by any of a variety of convenient methods, such as ELISA for fragmented DNA. Results shown are the mean+/−SD of duplicate samples and are representative of replicated experiments.

As to `COC(=O)CN=Cc1ccc(O)cc1` [compound 1], the IC50 in assay [1] (read-out: Inhibition (IC50)) is > 100 µM. Consider `COC(=O)[C@H](Cc1ccccc1)N=Cc1ccc(O)cc1` [compound 8, L-PheME/parahydroxybenzaldehyde Schiff base], for which, in assay [1] (read-out: Inhibition (IC50)), the half-inhibitory concentration (IC50) was ~50 µM and 50 µM. In addition, the “MIF inhibitory activity (inhibition of MIF induced proliferation in quiescent NIH/3T3 cell cultures)” value (“MIF inhibitory activity” for short) in assay [2] was “Neither compound 8 (corresponding to L-PheME/parahydroxybenzaldehyde Schiff base) nor compound 10b (corresponding to D-TrpME/parahydroxybenzaldehyde Schiff base) exhibited anti-MIF biological activity”. Regarding `COC(=O)[C@@H](Cc1ccccc1)N=Cc1ccc(O)cc1` [compound 8b], in assay [1], the MIF antagonist activity result is on record as “significantly less MIF antagonist activity”. For the compound `COC(=O)[C@H](Cc1ccc(O)cc1)N=Cc1ccc(O)cc1` [compound 9, L-TyrME/parahydroxybenzaldehyde Schiff base], in assay [1] (read-out: Inhibition (IC50)), the half-maximal inhibitory concentration (IC50) is ~10 µM and 10 µM. Moreover, the “MIF inhibitory activity” value in assay [2] is “exhibited MIF inhibitory activity”. Regarding `COC(=O)[C@H](Cc1c[nH]c2ccccc12)N=Cc1ccc(O)cc1` [compound 10], in assay [3] (10 μM), the “antagonism of the bioactivity of MIF in apoptosis assay” value is “significantly antagonizes the bioactivity of MIF”. The “neutralizing MIF-mediated protection from apoptosis (persistence of apoptosis despite rMIF)” value in assay [3] was “as effective an MIF antagonist agent as is a neutralizing anti-MIF monoclonal antibody; also recorded: as effective as a monoclonal anit-MIF antibody treatment at neutralizing rMIF; also recorded: dose-related effect”. In addition, the “suppression of serum-induced cell proliferation” value in assay [2] (FIG. 1, 10 μM, 10% serum, [3H]-thymidine incorporation, compared with anti-MIF mAb 100 μg/ml) was “as effective an MIF antagonist as a neutralizing anti-MIF monoclonal antibody”. The “MIF inhibitory activity” value in assay [2] is “exhibited MIF inhibitory activity”. Regarding `COC(=O)[C@@H](Cc1c[nH]c2ccccc12)N=Cc1ccc(O)cc1` [compound 10b, D-tryptophan/para-hydroxybenzaldehyde Schiff base], the “neutralizing MIF-mediated protection from apoptosis (persistence of apoptosis despite rMIF)” value in assay [3] was “but not compound 10b (D-tryptophan/para-hydroxybenzaldehyde Schiff base), was as effective as a monoclonal anit-MIF antibody treatment at neutralizing rMIF”. In addition, the MIF antagonist activity result in assay [1] was “significantly less MIF antagonist activity”.

As to `COC(=O)C(Cc1ccc(O)cc1)N=Cc1ccccc1O` (centres unmarked) [compound 18], the IC50 in assay [1] (read-out: Inhibition IC50) is > 100 µM. The same measure, in the same setting: as for `COC(=O)C(Cc1ccc(O)cc1)N=Cc1cccc(O)c1O` (centres unmarked) [compound 20], the figure is > 100 µM; as for `COC(=O)C(Cc1ccc(O)cc1)N=Cc1ccc(O)c(O)c1` (centres unmarked) [compound 21], > 100 µM.

In the case of `COC(=O)[C@H](Cc1ccc(O)cc1)N=Cc1ccc(F)cc1` [compound 24], the IC50 in assay [1] (read-out: Inhibition IC50) is > 100 µM.

With `COC(=O)[C@H](Cc1c[nH]c2ccccc12)N=Cc1ccc(F)cc1` [compound 29], the IC50 in assay [1] (read-out: Inhibition IC50) was > 100 µM.
